Assay results published in patent US11512053B2, “Arginine methyltransferase inhibitors and uses thereof” (priority 2013, dated 2022).
Where two headings read alike, the source gives them in different places.

Columns and labels:
[1] = target: full-length human PRMT8 isoform 1 (Homo sapiens, UniProt Q9NR22); test: PRMT8 Biochemical Assay (3H-SAM Flashplate, peptide substrate); conditions: read-out: Biochemical IC50 PRMT8
In short: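 Scintillation Flashplate capture of biotinylated histone H4 (31-45) peptide (150 nM) methylated by 1.5 nM PRMT8 using 3H-SAM (50 nM) with unlabelled SAM (550 nM); enzyme and compound preincubated 30 min, room temperature, in Bicine pH 7.6 buffer with TCEP, BSG, Tween 20 and 2% DMSO. Stopped with excess cold SAM (400 uM); IC50 from % inhibition, min control 1 mM SAH.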

[2] = target: full-length human PRMT1 isoform 1 (GST-tagged) (Homo sapiens, UniProt Q99873); test: PRMT1 Biochemical Assay (3H-SAM Flashplate, peptide substrate)
In short: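 Tritiated methyl transfer from 3H-SAM onto biotinylated peptide, captured on streptavidin Flashplates and counted. Baculovirus-expressed GST-PRMT1 and compound were preincubated 30 min at room temperature in Bicine buffer pH 7.6. Cold SAM at 300 uM final ended the reaction.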

[3] = single experiment or average of multiple experiments

full-length human PRMT1 isoform 1 (GST-tagged), sequence (Q99873 with tags, fused parts or gaps): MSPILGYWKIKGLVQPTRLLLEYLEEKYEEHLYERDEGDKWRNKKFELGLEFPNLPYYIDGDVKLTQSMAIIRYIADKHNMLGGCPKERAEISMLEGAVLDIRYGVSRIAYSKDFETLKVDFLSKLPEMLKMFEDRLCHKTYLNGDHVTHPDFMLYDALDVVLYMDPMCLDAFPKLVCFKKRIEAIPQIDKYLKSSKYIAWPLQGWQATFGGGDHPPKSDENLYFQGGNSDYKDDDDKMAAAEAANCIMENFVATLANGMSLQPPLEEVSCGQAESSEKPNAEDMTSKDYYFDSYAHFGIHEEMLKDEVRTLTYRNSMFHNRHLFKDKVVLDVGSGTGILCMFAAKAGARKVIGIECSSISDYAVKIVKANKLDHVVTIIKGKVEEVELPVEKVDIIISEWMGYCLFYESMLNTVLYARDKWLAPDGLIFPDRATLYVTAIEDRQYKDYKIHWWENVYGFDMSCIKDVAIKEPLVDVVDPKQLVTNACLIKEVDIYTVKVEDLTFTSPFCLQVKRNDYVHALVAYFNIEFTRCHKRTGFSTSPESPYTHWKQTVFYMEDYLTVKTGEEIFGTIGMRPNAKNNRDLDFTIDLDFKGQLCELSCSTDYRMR
full-length human PRMT8 isoform 1, sequence (Q9NR22 whole entry, canonical isoform): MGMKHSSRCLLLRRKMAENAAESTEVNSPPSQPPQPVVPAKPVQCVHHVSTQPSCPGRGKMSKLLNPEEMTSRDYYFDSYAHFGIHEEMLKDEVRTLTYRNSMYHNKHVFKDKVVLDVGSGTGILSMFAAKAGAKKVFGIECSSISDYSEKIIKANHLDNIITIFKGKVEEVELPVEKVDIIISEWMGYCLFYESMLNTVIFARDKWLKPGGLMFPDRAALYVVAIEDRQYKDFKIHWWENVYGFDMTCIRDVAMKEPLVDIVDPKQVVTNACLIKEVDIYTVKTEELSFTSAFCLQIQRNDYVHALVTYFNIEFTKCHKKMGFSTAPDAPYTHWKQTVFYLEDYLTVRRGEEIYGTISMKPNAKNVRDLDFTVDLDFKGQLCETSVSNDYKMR

Row | Structure (SMILES) | IC50 [1] | IC50 [1, 3] | IC50 [2] | IC50 [2, 3]
1 | CNCCN(C)Cc1c[nH]nc1C1CCC(C)(C)[C@H](C(=O)OC)C1 (stereo partly shown) [Compound 256] | < 100 nM | 44 nM | < 100 nM | 23.7 nM
2 | CNCCN(C)Cc1cnn(C)c1[C@H]1CC[C@]2(CC1)CC(C)(C)CO2 [Compound 257] | < 100 nM | 31 nM | < 100 nM | 29.8 nM
3 | CNCCN(C)Cc1c[nH]nc1[C@H]1CC[C@H](C(=O)N(C)CCOc2ccccc2)CC1 [Compound 258] | < 100 nM | 10.8 nM | < 100 nM | 7.59 nM
4 | CNCCN(C)Cc1c[nH]nc1[C@H]1CC[C@@H](C(=O)N(C)CCOc2ccccc2)CC1 [Compound 259] | < 100 nM | 17.1 nM | < 100 nM | 15.8 nM
5 | CNCCN(C)Cc1c[nH]nc1[C@H]1CC[C@@]2(CCC(C)(C)O2)CC1 [Compound 260] | < 100 nM | 37.3 nM | < 100 nM | 20.2 nM
6 | CNCCN(C)Cc1c[nH]nc1[C@H]1CC[C@@H](N(CCOC)C(=O)CCC(C)C)CC1 [Compound 261] | < 100 nM | 16.7 nM | < 100 nM | 13 nM
7 | CNCCN(C)Cc1c[nH]nc1C1CCC(C)(C)[C@H](C(=O)NCC(C)C)C1 (stereo partly shown) [Compound 262] | < 100 nM | 72.4 nM | < 100 nM | 33.7 nM
8 | CNCCN(C)Cc1c[nH]nc1C1CCC(C)(C)[C@@H](C(=O)NCCC(C)C)C1 (stereo partly drawn) [Compound 263, (1S)-2,2-dimethyl-5-[4-({methyl[2-(methylamino)ethyl]amino}methyl)-1H-pyrazol-3-yl]-N-(3-methylbutyl)cyclohexane-1-carboxamide] | < 100 nM | 35.1 nM | < 100 nM | 19.2 nM
9 | CNCCN(C)Cc1c[nH]nc1C1CCC(C)(C)[C@H](C(=O)NCCOC)C1 (stereo partly shown) [Compound 264] | 101 to 1000 nM | 181 nM | < 100 nM | 78 nM
10 | CNCCN(C)Cc1c[nH]nc1C1CCC(C)(C)[C@H](C(=O)NCCCOC)C1 (stereo partly shown) [Compound 265] | 101 to 1000 nM | 171 nM | < 100 nM | 58.8 nM
11 | CNCCN(C)Cc1c[nH]nc1C1CCC(C)(C)[C@@H](C(=O)NCC(C)C)C1 (stereo partly shown) [Compound 266] | < 100 nM | 63.1 nM | < 100 nM | 19.3 nM
12 | CNCCN(C)Cc1c[nH]nc1C1C[C@H](C(=O)N(C)CC(C)C)C(C)(C)[C@H](C(=O)N(C)CC(C)C)C1 (stereo partly shown) [Compound 267] | 3010 to 10000 nM | 5910 nM | 3010 to 10000 nM | 3500 nM

Results, then the compound that gave them:

Row | IC50 [1] | IC50 [1, 3] | IC50 [2] | IC50 [2, 3] | Structure (SMILES)
13 | < 100 nM | 84.5 nM | < 100 nM | 24.2 nM | CNCCN(C)Cc1c[nH]nc1[C@H]1CC[C@H](N(CC(C)C)C(=O)CCCOC)CC1 [Compound 249]
14 | < 100 nM | 42.4 nM | < 100 nM | 24 nM | CCN(C(=O)CCC(C)C)[C@H]1CC[C@H](c2n[nH]cc2CN(C)CCNC)CC1 [Compound 250]
15 | < 100 nM | 20.7 nM | < 100 nM | 13.1 nM | CCN(C(=O)CCC(C)C)[C@H]1CC[C@@H](c2n[nH]cc2CN(C)CCNC)CC1 [Compound 251]
16 | < 100 nM | 51.5 nM | < 100 nM | 30.9 nM | CNCCN(C)Cc1c[nH]nc1[C@H]1CC[C@H](N(CCOC)C(=O)CC(C)C)CC1 [Compound 252]
17 | < 100 nM | 11.7 nM | < 100 nM | 7.15 nM | CNCCN(C)Cc1c[nH]nc1[C@H]1CC[C@]2(CCOC2(C)C)CC1 [Compound 253]
18 | < 100 nM | 44 nM | < 100 nM | 17.3 nM | CNCCN(C)Cc1c[nH]nc1[C@H]1CC[C@H](N(CCOC)C(=O)CCC(C)C)CC1 [Compound 254]
19 | < 100 nM | 24.5 nM | < 100 nM | 10.2 nM | CNCCN(C)Cc1c[nH]nc1C1CCC(C)(C)[C@@H](C(=O)OC)C1 (stereo partly shown) [Compound 255]
